Results as given in PubChem BioAssay (NCI).
Where “and” joins values, the source holds several entries; their conditions need not be identical. Identical values can stand only once.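 Growth conditions: 96-well plates. Treatment: test compound, 48 hours, 5 concentrations. Analysis: linear interpolation between bracketing concentrations; unreached endpoints set to highest concentration. GI50 is the concentration that inhibits growth by half. The concentration for full growth arrest is given as TGI.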

Columns and labels:
Experiment in all cases: DTP human tumour cell line panel, 48 h
HT29 colon = test system: HT29 colon
OVCAR-4 ovarian = test system: OVCAR-4 ovarian
A549 NSCLC = test system: A549 NSCLC
MOLT-4 leukemia = test system: MOLT-4 leukemia
MCF7 breast = test system: MCF7 breast
HOP-62 NSCLC = test system: HOP-62 NSCLC
MDA-MB-435 = test system: MDA-MB-435
NCI-H522 lung = test system: NCI-H522 lung
OVCAR-8 ovarian = test system: OVCAR-8 ovarian
MDA-MB-231 breast = test system: MDA-MB-231 breast

SMILES | GI50 (HT29 colon) | GI50 (OVCAR-4 ovarian) | TGI (OVCAR-4 ovarian) | GI50 (A549 NSCLC) | TGI (A549 NSCLC) | GI50 (MOLT-4 leukemia) | TGI (MOLT-4 leukemia) | GI50 (MCF7 breast) | TGI (MCF7 breast) | GI50 (HOP-62 NSCLC) | TGI (HOP-62 NSCLC) | GI50 (MDA-MB-435) | TGI (MDA-MB-435) | GI50 (NCI-H522 lung) | TGI (NCI-H522 lung) | GI50 (OVCAR-8 ovarian) | TGI (OVCAR-8 ovarian) | GI50 (MDA-MB-231 breast) | TGI (MDA-MB-231 breast) | TGI (HT29 colon)
COc1cc(C(=O)N/N=C/c2ccc(N(C)C)cc2)cc(OC)c1OC | 0.347 µM | 0.824 µM | > 100 µM | 0.502 µM | > 100 µM | 0.729 µM | 19.4 µM | 0.34 µM | > 100 µM | 0.598 µM | > 100 µM | 0.0743 µM | 0.307 µM | 0.161 µM | 0.937 µM | 0.599 µM | > 100 µM | 1.89 µM | > 87.9 µM | 
O=C1c2cccc(NCCN=Cc3ccccc3O)c2C(=O)c2c(NCCN=Cc3ccccc3O)cccc21 | 0.298 µM |  | 2.39 µM | 0.668 µM | 14.3 µM | 0.353 µM | 1.56 µM | 0.279 µM | 1.08 µM | 0.663 µM | 3.89 µM | 1.16 µM | 2.87 µM | 0.278 µM | 1.38 µM | 0.369 µM | 2.47 µM | 0.489 µM | 2.28 µM | 1.93 µM
N#C[Se]CCCNS(=O)(=O)C1CC2C=CC1C2 (stereo not given) | 0.386 µM | 1.48 µM | 8.57 µM | 0.601 µM | 2.63 µM | 0.409 µM | 22.6 µM | 0.588 µM | 5.55 µM | 0.482 µM | 1.82 µM | 0.361 µM | 1.31 µM | 1.78 µM | 4.2 µM | 0.511 µM | 5.06 µM | 1.23 µM | 3.55 µM | 5.31 µM
Cc1cc(N(CCCl)CCCl)ccc1C=Nc1ccc2ccccc2c1 | > 85.3 µM | 15.5 µM | > 100 µM | 14.2 µM | > 100 µM | 4.52 µM | > 100 µM | 2.36 µM | > 100 µM | 25.2 µM | > 100 µM | 53.3 µM | > 100 µM | 20.1 µM | > 66.5 µM | 24.3 µM | > 100 µM | 34.5 µM | > 100 µM | > 100 µM
COc1cc(-c2c(C#N)c(N)nc(N3CCOCC3)c2C#N)cc(OC)c1OC | > 100 µM | > 100 µM | > 100 µM | > 100 µM | > 100 µM | > 100 µM | > 100 µM | > 100 µM | > 100 µM | 30.9 µM | > 100 µM | > 100 µM | > 100 µM | > 100 µM | > 100 µM | > 100 µM | > 100 µM | 22.6 µM | 78.9 µM | > 100 µM
COc1cc2c(cc1OC)C1Cc3cc(OC)c(OC)cc3C(C2)N1C | 23.5 µM and 54 µM |  | > 100 µM |  | > 100 µM |  | > 100 µM |  | > 75 µM |  | > 100 µM |  | > 75 µM |  | > 100 µM |  | > 100 µM |  | > 75 µM | > 100 µM
O=C1OCC2=C1C(c1ccc(Cl)c(Cl)c1)c1cc3c(cc1N2CCO)CCC3 (stereo not given) | 0.164 µM | 0.326 µM | 21.4 µM | 0.195 µM | 8.04 µM | 0.628 µM | 27.8 µM | 0.157 µM | 7.2 µM | 0.229 µM | 9.26 µM | 0.0611 µM | 0.183 µM | 0.11 µM | 0.371 µM | 0.221 µM | 8.27 µM | 0.747 µM | 9.36 µM | 0.646 µM
CCN(CC)C1CCC(Nc2c(C(C)=O)cnc3ccc(-c4ccc(O)c(Cl)c4)cc23)CC1 (stereo not given) | 1.64 µM | 0.77 µM | 13.6 µM | 0.58 µM | 5.52 µM | 0.253 µM | 1.18 µM | 0.229 µM | 1.42 µM | 2.14 µM | > 45.5 µM | 0.651 µM | 10.5 µM | 0.331 µM | 1.71 µM | 0.818 µM | 14 µM | 0.741 µM | 12.5 µM | 3.51 µM
CC(=O)OC1CC2C3CCC4C[C@@H](NC(=O)C=C(C)C)CC[C@]4(C)C3CC[C@]2(C)[C@H]1C(C)N(C)C (stereo not given in full) | 0.376 µM | 2.82 µM | 17.5 µM | 2.39 µM | 6.99 µM | 1.32 µM | 4.18 µM | 1.71 µM | 5.84 µM | 1.8 µM | 3.64 µM | 2.17 µM | 4.82 µM | 2.78 µM | 11.4 µM | 4.87 µM | > 31.5 µM | 2.1 µM | 4.72 µM | 1.47 µM
CC(=O)Oc1ccc(/C(=C(\C)c2ccc(Cl)cc2)c2ccc(OCCN3CCCCC3)cc2)cc1 | 1.19 µM | 1.93 µM | 5.43 µM | 1.94 µM | 4.15 µM | 1.73 µM | 5.36 µM |  | 2.55 µM | 2.05 µM | 4.23 µM | 1.7 µM | 3.26 µM | 1.71 µM | 3.49 µM | 2.15 µM | 4.88 µM | 2.04 µM | 3.89 µM | 3.24 µM
O=C(Nc1n[nH]c2nnc(-c3cccnc3)cc12)C1CC1 | 4.76 µM | 7.66 µM | > 25 µM | > 20.7 µM | > 25 µM | 4.88 µM | > 25 µM | 1.07 µM | > 25 µM | 10.1 µM | > 25 µM | > 11.3 µM | > 25 µM | > 5.13 µM | > 25 µM | 7.65 µM | > 25 µM |  | > 25 µM | > 25 µM
CC1(C)[C@@H](OC(=O)CCC(=O)O)CC[C@]2(C)[C@H]3C(=O)C=C4[C@@H]5C[C@@](C)(C(=O)O)CC[C@]5(C)CC[C@@]4(C)[C@]3(C)CC[C@@H]12 | 56.1 µM | 64.6 µM | 168 µM | 61 µM | 130 µM |  |  | 54.7 µM | 136 µM | 53.9 µM | 79.5 µM | 58.2 µM | 98.8 µM | 51.1 µM | 80.7 µM | 59.1 µM | 154 µM | 78.8 µM | 171 µM | 130 µM
